Measured values as given in BindingDB's records for doi:10.1016/s0960-894x(98)00583-6 (Novartis Horsham Research Center, 1999).

Biological target: cGMP-inhibited 3',5'-cyclic phosphodiesterase 3A/3B (Homo sapiens, UniProt Q13370+Q14432)
Test: Inhibition of phosphodiesterase (PDE) 3

Chain of cGMP-inhibited 3',5'-cyclic phosphodiesterase 3A/3B (Q14432 whole entry): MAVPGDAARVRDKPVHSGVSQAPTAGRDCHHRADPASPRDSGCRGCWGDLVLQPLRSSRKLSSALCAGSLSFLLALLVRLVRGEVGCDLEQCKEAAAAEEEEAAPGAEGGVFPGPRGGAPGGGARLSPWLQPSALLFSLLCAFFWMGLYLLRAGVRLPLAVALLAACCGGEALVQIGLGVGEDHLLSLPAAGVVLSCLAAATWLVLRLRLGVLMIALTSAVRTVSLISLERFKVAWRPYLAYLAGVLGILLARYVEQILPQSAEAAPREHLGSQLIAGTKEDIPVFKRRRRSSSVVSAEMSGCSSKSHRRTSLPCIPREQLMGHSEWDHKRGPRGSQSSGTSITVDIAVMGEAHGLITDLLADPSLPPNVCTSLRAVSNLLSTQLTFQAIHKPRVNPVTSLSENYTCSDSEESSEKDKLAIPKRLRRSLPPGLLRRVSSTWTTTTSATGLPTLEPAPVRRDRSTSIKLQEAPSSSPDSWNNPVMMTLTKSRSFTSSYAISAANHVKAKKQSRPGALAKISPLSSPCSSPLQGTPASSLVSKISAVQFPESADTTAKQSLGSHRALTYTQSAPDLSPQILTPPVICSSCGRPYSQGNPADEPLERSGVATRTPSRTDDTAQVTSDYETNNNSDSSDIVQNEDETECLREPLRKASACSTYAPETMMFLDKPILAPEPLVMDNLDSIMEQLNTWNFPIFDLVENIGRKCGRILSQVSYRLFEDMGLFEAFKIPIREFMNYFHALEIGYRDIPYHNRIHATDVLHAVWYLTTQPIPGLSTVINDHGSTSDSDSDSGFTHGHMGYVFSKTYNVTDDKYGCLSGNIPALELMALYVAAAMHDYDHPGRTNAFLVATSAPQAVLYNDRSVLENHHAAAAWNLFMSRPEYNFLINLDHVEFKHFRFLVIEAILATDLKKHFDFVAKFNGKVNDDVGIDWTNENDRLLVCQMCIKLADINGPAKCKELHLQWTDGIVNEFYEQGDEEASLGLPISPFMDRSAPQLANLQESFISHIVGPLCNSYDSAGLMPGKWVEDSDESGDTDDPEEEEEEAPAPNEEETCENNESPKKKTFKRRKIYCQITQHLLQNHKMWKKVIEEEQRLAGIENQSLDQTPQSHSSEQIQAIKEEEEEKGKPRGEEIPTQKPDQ
Chain of cGMP-inhibited 3',5'-cyclic phosphodiesterase 3A/3B (Q13370 whole entry): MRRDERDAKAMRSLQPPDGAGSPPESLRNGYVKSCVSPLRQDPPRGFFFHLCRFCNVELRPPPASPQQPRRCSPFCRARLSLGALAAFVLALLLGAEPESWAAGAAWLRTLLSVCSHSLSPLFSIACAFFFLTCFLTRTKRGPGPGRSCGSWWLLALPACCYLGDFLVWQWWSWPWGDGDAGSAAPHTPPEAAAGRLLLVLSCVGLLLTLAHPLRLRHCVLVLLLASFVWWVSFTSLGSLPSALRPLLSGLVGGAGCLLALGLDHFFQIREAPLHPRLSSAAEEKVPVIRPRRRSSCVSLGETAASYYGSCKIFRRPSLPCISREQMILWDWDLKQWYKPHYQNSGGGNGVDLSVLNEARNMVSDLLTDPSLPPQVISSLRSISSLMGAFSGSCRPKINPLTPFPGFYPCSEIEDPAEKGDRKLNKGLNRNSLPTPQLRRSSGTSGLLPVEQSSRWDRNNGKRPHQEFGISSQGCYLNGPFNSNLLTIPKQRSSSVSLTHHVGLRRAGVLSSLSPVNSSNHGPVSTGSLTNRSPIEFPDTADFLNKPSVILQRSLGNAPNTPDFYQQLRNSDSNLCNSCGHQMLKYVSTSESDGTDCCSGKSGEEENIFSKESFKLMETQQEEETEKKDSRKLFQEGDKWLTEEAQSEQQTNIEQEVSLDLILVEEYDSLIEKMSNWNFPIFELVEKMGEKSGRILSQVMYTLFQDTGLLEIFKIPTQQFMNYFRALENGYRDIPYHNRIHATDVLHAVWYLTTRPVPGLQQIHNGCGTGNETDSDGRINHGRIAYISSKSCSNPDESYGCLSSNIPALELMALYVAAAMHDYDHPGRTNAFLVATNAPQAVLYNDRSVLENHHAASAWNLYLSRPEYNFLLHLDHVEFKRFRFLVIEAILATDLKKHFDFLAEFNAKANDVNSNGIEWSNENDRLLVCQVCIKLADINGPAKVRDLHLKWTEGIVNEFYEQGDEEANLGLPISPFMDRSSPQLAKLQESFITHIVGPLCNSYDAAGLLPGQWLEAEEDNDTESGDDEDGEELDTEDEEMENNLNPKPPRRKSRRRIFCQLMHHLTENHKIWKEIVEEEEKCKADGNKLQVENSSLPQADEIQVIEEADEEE

Structure (SMILES)	IC50 [µM]
COc1cccc(COc2cccc(N3CC(c4ccc(OC)c(OC5CCCC5)c4)CC3=O)c2)c1 (centres undefined)	> 100
COc1cccc(COc2cc(C(=O)NN(C)C)cc(N3CC(c4ccc(OC)c(OC5CCCC5)c4)CC3=O)c2)c1 (centres undefined)	> 100
COc1cccc(COc2cc(C(=O)O)cc(N3CC(c4ccc(OC)c(OC5CCCC5)c4)CC3=O)c2)c1 (centres undefined)	> 100
COc1ccc([C@@H]2CNC(=O)C2)cc1OC1CCCC1 (racemic) [Adeo]	> 100
